Where two headings read alike, the source gives them in different places. One block for each molecule: values may come before it. Bridge positions count the residues as written; N and C are the ends. Ends that are not written are not given here. I, II: the chains in the order shown.
Experiments:
[1] = tested on: SOD1; test: SOD1 gene silencing in mouse organs and brain regions, qPCR; format: in vivo, mice; conditions: 400 pmol siSOD1, 100 μg peptide, tail vein, daily for 3 d, n = 8
Method: All procedures were performed in compliance with guidelines and protocols approved by the Institutional Animal Care and Use Committee (IACUC) of Hanyang University. The Balb/c mice were used to test the in vivo delivery of complexed particles to the brain. To ascertain ligand-receptor-mediated delivery of diLep9R3LC:siRNA, the leptin-receptor-deficient (db/db, Jackson Laboratory, ME) strains were utilized. Further, to study therapeutic efficacy of siRNA in AD, 7-month-old male 3xTg (B6;129-Psen1tm1Mpm Tg (APPSwe,tauP301L)1Lfa/Mmjax) mice (Jackson Laboratory, ME) were used. These mice show AD-like pathological and physiological characteristics with respect to formation of Aβ plaques and tangled tau as well as abnormal behaviors. […] In all experiments, a group of control mice (n = 4) were also injected with DPBS (pH 7.4).
For quantitative polymerase chain reaction (qPCR), total RNA was extracted from N2a cells 24 h posttransfection and homogenized brain samples using the RNAiso kit (Takara, Kyoto, Japan). The RNA was quantified with SYBR premix Ex Taq perfect real time (Takara, Kyoto, Japan) with qPCR primers. In all cases, relative gene expression was calculated in comparison to normalized target mRNA levels in nontreated groups. […] All primers were synthesized from Cosmogenetech (Seoul, Korea), and sequences are depicted below.

[2] = tested on: N2a cells; test: Cytotoxicity, Cell Counting Kit-8 assay; conditions: 24 h posttransfection, Cell Counting Kit-8, at tested weight ratio, with siSOD1 (Fig. 1G)
[3] = biological target: T1, leptin receptor (Homo sapiens, UniProt P48357); test: SPR biosensor binding of peptide to immobilized leptin receptor; conditions: for kon: read-out: association constant (Ka)
T1 construct: purchased R&D Systems
T1 sequence (P48357 22-1165): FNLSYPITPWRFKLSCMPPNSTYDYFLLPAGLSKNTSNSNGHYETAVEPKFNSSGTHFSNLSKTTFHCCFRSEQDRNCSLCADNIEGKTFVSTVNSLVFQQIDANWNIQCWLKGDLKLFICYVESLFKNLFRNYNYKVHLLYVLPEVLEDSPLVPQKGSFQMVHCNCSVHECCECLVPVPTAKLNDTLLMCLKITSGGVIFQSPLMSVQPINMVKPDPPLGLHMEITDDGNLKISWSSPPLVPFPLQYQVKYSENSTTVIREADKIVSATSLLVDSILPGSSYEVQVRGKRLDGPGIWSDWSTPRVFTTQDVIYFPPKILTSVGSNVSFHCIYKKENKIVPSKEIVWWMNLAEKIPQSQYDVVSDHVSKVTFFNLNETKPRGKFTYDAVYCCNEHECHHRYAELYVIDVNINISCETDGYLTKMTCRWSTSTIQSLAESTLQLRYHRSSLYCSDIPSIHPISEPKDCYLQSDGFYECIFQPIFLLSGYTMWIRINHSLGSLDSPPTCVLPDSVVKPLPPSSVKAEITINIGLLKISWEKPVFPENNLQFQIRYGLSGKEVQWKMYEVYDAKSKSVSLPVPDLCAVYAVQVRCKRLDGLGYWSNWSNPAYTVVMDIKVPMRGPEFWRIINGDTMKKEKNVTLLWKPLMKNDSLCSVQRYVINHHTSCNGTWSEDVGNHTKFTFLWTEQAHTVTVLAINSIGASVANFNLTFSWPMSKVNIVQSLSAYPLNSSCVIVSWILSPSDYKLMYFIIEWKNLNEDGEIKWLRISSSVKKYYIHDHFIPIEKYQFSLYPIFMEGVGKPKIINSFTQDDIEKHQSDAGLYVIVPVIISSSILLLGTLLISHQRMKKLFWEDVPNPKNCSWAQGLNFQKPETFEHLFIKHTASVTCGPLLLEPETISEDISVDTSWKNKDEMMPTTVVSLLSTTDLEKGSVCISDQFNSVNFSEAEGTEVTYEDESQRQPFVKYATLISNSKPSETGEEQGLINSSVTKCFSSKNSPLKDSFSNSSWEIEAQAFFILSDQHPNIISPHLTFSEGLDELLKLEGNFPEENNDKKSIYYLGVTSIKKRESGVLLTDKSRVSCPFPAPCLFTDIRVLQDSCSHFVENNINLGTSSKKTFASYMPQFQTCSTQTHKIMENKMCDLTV
Method: The direct binding of diLep9R3LC or Lep9R3LC to the target was evaluated using a dual-channel surface plasmon resonance (SPR) instrument (Reichert SR7500DC system, Depew, NY). The process of immobilizing the leptin receptor protein (R&D Systems, Minneapolis, MN) onto the sensor chip surface was accomplished using free amine coupling through an 1-ethyl-3-(3-dimethylaminopropyl) carbodiimide hydrochloride (EDC)/N-hydroxysuccinimide (NHS) reaction. The process of the EDC/NHS reaction involves injecting a mixture containing 0.1 M EDC and 0.05 M NHS. Subsequently, the remaining activated carboxyl groups were quenched with 1 M ethanolamine at pH 6.0. All dilutions of the working peptides were prepared in the running buffer (PBS with 1% DMSO) and injected for 3 min (association time) at a flow rate of 50 μl/min followed by a dissociation phase of 3 min. Nonspecific background binding was subtracted from each sensogram using SPR_V4017 Data Acquisition and Alignment Program (Reichert, Depew, NY). Binding rates and constants were independent of flow rate over a wide range. Best-fit kinetic parameters were obtained by global fitting analysis using Scrubber2 (Biologic Software, Australia).

[4] = tested on: N2a cells
[5] = biological target: T2, leptin receptor (Mus musculus, UniProt P48356); test: SPR
T2 chain: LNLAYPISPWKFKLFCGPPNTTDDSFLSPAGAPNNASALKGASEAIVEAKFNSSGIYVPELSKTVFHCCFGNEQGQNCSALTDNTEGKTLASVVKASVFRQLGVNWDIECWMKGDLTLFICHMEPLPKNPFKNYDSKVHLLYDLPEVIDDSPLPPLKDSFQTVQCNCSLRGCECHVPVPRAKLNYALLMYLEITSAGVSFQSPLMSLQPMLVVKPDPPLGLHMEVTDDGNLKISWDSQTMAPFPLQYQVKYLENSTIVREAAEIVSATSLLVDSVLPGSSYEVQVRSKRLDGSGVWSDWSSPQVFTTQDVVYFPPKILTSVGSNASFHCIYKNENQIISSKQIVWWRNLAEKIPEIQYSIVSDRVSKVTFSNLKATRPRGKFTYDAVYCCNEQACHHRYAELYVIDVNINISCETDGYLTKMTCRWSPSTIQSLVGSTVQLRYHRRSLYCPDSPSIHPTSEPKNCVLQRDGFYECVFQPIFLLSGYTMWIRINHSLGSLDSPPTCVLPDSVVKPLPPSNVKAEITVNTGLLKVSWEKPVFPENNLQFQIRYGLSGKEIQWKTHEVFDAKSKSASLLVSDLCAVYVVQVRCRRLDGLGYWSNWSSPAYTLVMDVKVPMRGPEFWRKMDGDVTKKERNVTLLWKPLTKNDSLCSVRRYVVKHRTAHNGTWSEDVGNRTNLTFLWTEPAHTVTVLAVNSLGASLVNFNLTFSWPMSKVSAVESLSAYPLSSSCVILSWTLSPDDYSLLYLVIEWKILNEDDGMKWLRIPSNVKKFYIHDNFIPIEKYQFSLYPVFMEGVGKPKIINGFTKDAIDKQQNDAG

Molecule: EVGQSDYSSYARTSIRASLTFGGGGRRRRRRRRRLLLC [scrambled9R, scrambled peptide, nontargeting control]
SOD1 silencing, brain [1]: not when used with scrambled peptide

Molecule: I: YQQVLTSLPSQNVLQIANDLENLRDLLHLLGGGGRRRRRRRRRLLLC / II: YQQVLTSLPSQNVLQIANDLENLRDLLHLLGGGGRRRRRRRRRLLLC (disulfide I:47-II:47) [diLep9R3LC]
cytotoxicity [2]: did not show any cytotoxicity
kon [3]: 3300 M⁻¹ s⁻¹

Molecule: YQQVLTSLPSQNVLQIANDLENLRDLLHLLGGGGRRRRRRRRRLLLC [Lep9R3LC]
Kd [5]: 1380 nM

The next lines start with results.

kon ([3]; SPR Reichert SR7500DC, amine-coupled receptor, running buffer PBS with 1% DMSO, 3 min association, 3 min dissociation, 50 μl/min, global fit Scrubber2): 1100 M⁻¹ s⁻¹
Kd ([3]; SPR, leptin receptor immobilized, PBS with 1% DMSO, global fit, read-out: binding affinity (KD) (Kd/Ka)): 1380 nM
Molecule: YQQVLTSLPSQNVLQIANDLENLRDLLHLLGGGGRRRRRRRRRLLLC [Lep9R3LC]
cytotoxicity [4]: did not show any cytotoxicity

Kd [5]: 462 nM
Molecule: YQQVLTSLPSQNVLQIANDLENLRDLLHLLGGGGRRRRRRRRRLLLC (also: disulfide-linked dimer via C-terminal Cys) [diLep9R3LC]

— paper PMC11168191, “Systemic Treatment with siRNA Targeting Gamma-Secretase Activating Protein Inhibits Amyloid-β Accumulation in Alzheimer’s Disease” (Biomaterials Research, 2024)
